Consider 14 compounds from patent US20220387602A1, “BIFUNCTIONAL DEGRADERS AND THEIR METHODS OF USE” (NOVARTIS AG, priority 2019, published 2022).

Where only a bound is given, the exact number is not on record here.

Experiment [1] concerns the target T1, BTK (Homo sapiens, UniProt Q06187).
T1 construct: the BTK open reading frame (ORF) was first shuttled from a pcDNA-DEST40-BTK vector; expressed in transfected cells; host or cells: HEK293A (Invitrogen R70507), lentiviral transduction, blasticidin selection
Description: BTK-GFP protein abundance flow cytometry assay in HEK293A. It is filed as cell-based. Conditions: 24 h; for BTK degradation Amax: % protein remaining at the concentration at which maximum degradation is seen, HEK293A; for DC50: concentration at which 50% maximal degradation was observed, HEK293A BTK-GFP sensor cells. The essentials:
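HEK293A cells stably expressing bicistronic BTK-GFP-iresRFP were treated 24 h at 37° C with 10-point 1:3 dilutions from 10 μM, DMSO at 0.1%. GFP was read by flow cytometry as median of 5,000 single cells, scaled between RFP-only cells (0%) and DMSO controls (100%). DC50 = concentration at 50% degradation; Amax = % protein remaining at maximal degradation.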

Experiment [2] has as its target CRBN (Homo sapiens, UniProt Q96SW2). Description: CRBN displacement assay Format 1 (fluorescence polarization, BodipyFL-lenalidomide probe Compound HH). It is filed as binding. The essentials:
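Fluorescence polarization competition: CRBN (nominal 100 nM final) pre-incubated 45 min at room temperature with compound, then BodipyFL-lenalidomide probe added (5 nM final; 0.9% DMSO).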
(In fluorescence polarisation assays a small probe gives low polarisation when free and higher when bound to something large.)

T1 sequence (Q06187 whole entry): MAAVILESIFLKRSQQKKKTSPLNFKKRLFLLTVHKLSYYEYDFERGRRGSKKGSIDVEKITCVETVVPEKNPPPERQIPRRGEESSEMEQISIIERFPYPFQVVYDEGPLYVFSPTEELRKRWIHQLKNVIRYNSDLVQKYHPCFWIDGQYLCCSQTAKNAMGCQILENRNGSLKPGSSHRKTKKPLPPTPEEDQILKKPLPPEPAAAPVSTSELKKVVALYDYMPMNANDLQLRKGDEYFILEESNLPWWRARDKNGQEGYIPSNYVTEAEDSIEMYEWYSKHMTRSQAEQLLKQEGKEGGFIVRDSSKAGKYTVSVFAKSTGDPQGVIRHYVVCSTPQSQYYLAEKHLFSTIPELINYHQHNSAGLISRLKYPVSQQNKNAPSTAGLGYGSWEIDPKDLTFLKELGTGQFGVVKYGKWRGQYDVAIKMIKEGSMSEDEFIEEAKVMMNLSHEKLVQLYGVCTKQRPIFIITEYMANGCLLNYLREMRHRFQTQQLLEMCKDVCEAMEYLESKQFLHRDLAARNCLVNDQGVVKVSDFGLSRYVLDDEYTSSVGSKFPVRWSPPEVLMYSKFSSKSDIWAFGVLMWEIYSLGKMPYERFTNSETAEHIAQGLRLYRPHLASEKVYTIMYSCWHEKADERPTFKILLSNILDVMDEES
Chain of CRBN (Q96SW2 whole entry): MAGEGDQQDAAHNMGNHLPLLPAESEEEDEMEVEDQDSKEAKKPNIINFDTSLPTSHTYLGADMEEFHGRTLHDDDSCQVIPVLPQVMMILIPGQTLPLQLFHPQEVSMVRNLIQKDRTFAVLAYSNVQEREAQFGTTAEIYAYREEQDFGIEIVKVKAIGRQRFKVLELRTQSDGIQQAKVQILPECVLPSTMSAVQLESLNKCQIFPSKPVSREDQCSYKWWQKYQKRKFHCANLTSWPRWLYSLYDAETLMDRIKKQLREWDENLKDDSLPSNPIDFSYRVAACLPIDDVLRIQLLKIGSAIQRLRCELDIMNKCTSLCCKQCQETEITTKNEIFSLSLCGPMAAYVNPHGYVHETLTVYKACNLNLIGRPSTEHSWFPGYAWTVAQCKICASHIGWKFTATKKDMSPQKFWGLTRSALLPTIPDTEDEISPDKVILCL

What is called DC50 is the midpoint of the concentration-degradation curve. A high value points to degradation only at high concentration. For orientation: AC50 means the concentration giving half of the maximal activity seen. A higher AC50 goes with activity only at high concentration. On to `COc1cc(C(=O)N2CCC(OC3CCN(Cc4ccc(-c5cc6c(-c7cc(F)cc(NC(=O)c8ccc(C(C)(C)O)cc8F)c7C)ncnc6[nH]5)cc4)CC3)CC2)ccc1N1CCC(=O)NC1=O` [Compound 24, N-(3-(6-(4-((4-((1-(4-(2,4-Dioxotetrahydropyrimidin-1(2H)-yl)-3-methoxybenzoyl)piperidin-4-yl)oxy)piperidin-1-yl)methyl)phenyl)-7H-pyrrolo[2,3-d]pyrimidin-4-yl)-5-fluoro-2-methylphenyl)-2-fluoro-4-(2-hydroxypropan-2-yl)benzamide], for which, in experiment [1], the “BTK degradation Amax” value came out at 55.7% and the half-maximal degradation concentration (DC50) was 24 nM. Besides, the AC50 in experiment [2] worked out at 5190 nM.
For `Cc1ccc(OCC(=O)N2CCN(CCOc3ccc(-c4cc5c(-c6cc(F)cc(NC(=O)c7ccc(C(C)(C)O)cc7F)c6C)ncnc5[nH]4)cc3)CC2)cc1N1CCC(=O)NC1=O` [Compound 10, N-(3-(6-(4-(2-(4-(2-(3-(2,4-Dioxotetrahydropyrimidin-1(2H)-yl)-4-methylphenoxy)acetyl)piperazin-1-yl)ethoxy)phenyl)-7H-pyrrolo[2,3-d]pyrimidin-4-yl)-5-fluoro-2-methylphenyl)-2-fluoro-4-(2-hydroxypropan-2-yl)benzamide] the same measures were 3.1%, 3.3 nM and 466 nM.
Turning to `Cc1c(NC(=O)N2C[C@H](CC(C)C)[C@@H](O)C2)cc(F)cc1-c1ncnc2[nH]c(-c3ccc(CN4CCC(OC5CCN(CCn6cccc(CN7CCC(=O)NC7=O)c6=O)CC5)CC4)cc3)cc12` [Compound 35, (3R,4S)—N-(3-(6-(4-((4-((1-(2-(3-((2,4-dioxotetrahydropyrimidin-1(2H)-yl)methyl)-2-oxopyridin-1(2H)-yl)ethyl)piperidin-4-yl)oxy)piperidin-1-yl)methyl)phenyl)-7H-pyrrolo[2,3-d]pyrimidin-4-yl)-5-fluoro-2-methylphenyl)-3-hydroxy-4-isobutylpyrrolidine-1-carboxamide], in experiment [1], the “BTK degradation Amax” value stood at 6.6% and the DC50 is 2.1 nM. The compound further gave an AC50 in experiment [2] of 742 nM.
Turning to `Cc1c(NC(=O)c2ccc(C(C)(C)O)cc2F)cc(F)cc1-c1ncnc2[nH]c(-c3ccc(CN4CCC(CCNC(=O)COc5cccc(N6CCC(=O)NC6=O)c5)CC4)cc3)cc12` [Compound 11, N-(3-(6-(4-((4-(2-(2-(3-(2,4-Dioxotetrahydropyrimidin-1(2H)-yl)phenoxy)acetamido)ethyl)piperidin-1-yl)methyl)phenyl)-7H-pyrrolo[2,3-d]pyrimidin-4-yl)-5-fluoro-2-methylphenyl)-2-fluoro-4-(2-hydroxypropan-2-yl)benzamide], in experiment [1], the “BTK degradation Amax” value was 2.3% and the DC50 amounted to 2.2 nM. The activity in experiment [2] was half-maximal at 599 nM (AC50).
For `Cc1ccc(S(=O)(=O)NCCCCCNCc2ccc(-c3cc4c(-c5cc(F)cc(NC(=O)c6ccc(C(C)(C)O)cc6F)c5C)ncnc4[nH]3)cc2)cc1N1CCC(=O)NC1=O` [Compound 18, N-(3-(6-(4-(((5-(3-(2,4-dioxotetrahydropyrimidin-1(2H)-yl)-4-methylphenylsulfonamido)pentyl)amino)methyl)phenyl)-7H-pyrrolo[2,3-d]pyrimidin-4-yl)-5-fluoro-2-methylphenyl)-2-fluoro-4-(2-hydroxypropan-2-yl)benzamide], in experiment [1], the “BTK degradation Amax” value is on record as 7.6% and the DC50 came out at 307 nM. In addition, the activity in experiment [2] was half-maximal at 3090 nM (AC50).
For `Cc1c(NC(=O)c2ccc(C(C)(C)O)cc2F)cc(F)cc1-c1ncnc2[nH]c(-c3ccc(CN4CCN(C(=O)N5CCN(CCC#Cc6ccc(N7CCC(=O)NC7=O)cc6)CC5)CC4)cc3)cc12` [Compound 23, N-(3-(6-(4-((4-(4-(4-(4-(2,4-Dioxotetrahydropyrimidin-1(2H)-yl)phenyl)but-3-yn-1-yl)piperazine-1-carbonyl)piperazin-1-yl)methyl)phenyl)-7H-pyrrolo[2,3-d]pyrimidin-4-yl)-5-fluoro-2-methylphenyl)-2-fluoro-4-(2-hydroxypropan-2-yl)benzamide] the same measures were 9.6%, 2.8 nM and above 50500 nM.
For `Cc1ncc(C(=O)NCCCCCN(C)Cc2ccc(-c3cc4c(-c5cc(F)cc(NC(=O)c6ccc(C(C)(C)O)cc6F)c5C)ncnc4[nH]3)cc2)cc1N1CCC(=O)NC1=O` [Compound 17, 5-(2,4-Dioxotetrahydropyrimidin-1(2H)-yl)-N-(5-((4-(4-(5-fluoro-3-(2-fluoro-4-(2-hydroxypropan-2-yl)benzamido)-2-methylphenyl)-7H-pyrrolo[2,3-d]pyrimidin-6-yl)benzyl)(methyl)amino)pentyl)-6-methylnicotinamide] the same measures were 16.6%, 101 nM and 3550 nM.
For `Cc1c(NC(=O)c2ccc(C(C)(C)O)cc2F)cc(F)cc1-c1ncnc2[nH]c(-c3ccc(CN4CCN(CCNC(=O)COc5cccc(N6CCC(=O)NC6=O)c5)CC4)cc3)cc12` [Compound 09, N-(3-(6-(4-((4-(2-(2-(3-(2,4-dioxotetrahydropyrimidin-1(2H)-yl)phenoxy)acetamido)ethyl)piperazin-1-yl)methyl)phenyl)-7H-pyrrolo[2,3-d]pyrimidin-4-yl)-5-fluoro-2-methylphenyl)-2-fluoro-4-(2-hydroxypropan-2-yl)benzamide] the same measures were 3.9%, 3.2 nM and 1400 nM.
With `Cc1c(NC(=O)c2ccc(C(C)(C)O)cc2F)cc(F)cc1-c1ncnc2[nH]c(-c3ccc(CN4CCC5(CC4)CN(CCCc4ccc(N6CCC(=O)NC6=O)cc4)CCO5)cc3)cc12` [Compound 20, N-(3-(6-(4-((4-(3-(4-(2,4-Dioxotetrahydropyrimidin-1(2H)-yl)phenyl)propyl)-1-oxa-4,9-diazaspiro[5.5]undecan-9-yl)methyl)phenyl)-7H-pyrrolo[2,3-d]pyrimidin-4-yl)-5-fluoro-2-methylphenyl)-2-fluoro-4-(2-hydroxypropan-2-yl)benzamide], in experiment [1], the “BTK degradation Amax” value stood at 37.1% and the DC50 turned out to be 27.7 nM. In experiment [2], this compound returned an AC50 above 100000 nM.
For `Cc1ccc(N2CCC(=O)NC2=O)cc1CNC(=O)CCCCN(C)Cc1ccc(-c2cc3c(-c4cc(F)cc(NC(=O)c5ccc(C(C)(C)O)cc5F)c4C)ncnc3[nH]2)cc1` [Compound 08, N-(3-(6-(4-(((5-((5-(2,4-dioxotetrahydropyrimidin-1(2H)-yl)-2-methylbenzyl)amino)-5-oxopentyl)(methyl)amino)methyl)phenyl)-7H-pyrrolo[2,3-d]pyrimidin-4-yl)-5-fluoro-2-methylphenyl)-2-fluoro-4-(2-hydroxypropan-2-yl)benzamide], in that order: 55.1%, above 3330 nM and 2100 nM.
With `Cc1c(NC(=O)c2ccc(C(C)(C)O)cc2F)cc(F)cc1-c1ncnc2[nH]c(-c3ccc(CNCCCCOCCn4cccc(CN5CCC(=O)NC5=O)c4=O)cc3)cc12` [Compound 34, N-(3-(6-(4-(((4-(2-(3-((2,4-dioxotetrahydropyrimidin-1(2H)-yl)methyl)-2-oxopyridin-1(2H)-yl)ethoxy)butyl)amino)methyl)phenyl)-7H-pyrrolo[2,3-d]pyrimidin-4-yl)-5-fluoro-2-methylphenyl)-2-fluoro-4-(2-hydroxypropan-2-yl)benzamide], in experiment [1], the “BTK degradation Amax” value was 40.3% and the DC50 came out at 642 nM. For the same compound, the AC50 in experiment [2] came to 736 nM.
For `Cc1c(NC(=O)c2ccc(C(C)(C)O)cc2F)cc(F)cc1-c1ncnc2[nH]c(-c3ccc(CN4CCN(C(=O)N5CCN(CCC#Cc6cccc(N7CCC(=O)NC7=O)c6)CC5)CC4)cc3)cc12` [Compound 03, N-(3-(6-(4-((4-(4-(4-(3-(2,4-dioxotetrahydropyrimidin-1(2H)-yl)phenyl)but-3-yn-1-yl)piperazine-1-carbonyl)piperazin-1-yl)methyl)phenyl)-7H-pyrrolo[2,3-d]pyrimidin-4-yl)-5-fluoro-2-methylphenyl)-2-fluoro-4-(2-hydroxypropan-2-yl)benzamide], in that order: 41.9%, 24.8 nM and 257 nM.
For `Cc1c(NC(=O)c2ccc(C(C)(C)O)cc2F)cc(F)cc1-c1ncnc2[nH]c(-c3ccc(CNCCCCCCn4cc(-c5cccc(N6CCC(=O)NC6=O)c5)nn4)cc3)cc12` [Compound 19, N-(3-(6-(4-(((6-(4-(3-(2,4-Dioxotetrahydropyrimidin-1(2H)-yl)phenyl)-1H-1,2,3-triazol-1-yl)hexyl)amino)methyl)phenyl)-7H-pyrrolo[2,3-d]pyrimidin-4-yl)-5-fluoro-2-methylphenyl)-2-fluoro-4-(2-hydroxypropan-2-yl)benzamide] the same measures were 48.2%, 229 nM and 104 nM.
Turning to `Cc1c(NC(=O)c2ccc(C(C)(C)O)cc2F)cc(F)cc1-c1ncnc2[nH]c(-c3ccc(CNCCN4CCC(Oc5ccc(N6CCC(=O)NC6=O)cc5)CC4)cc3)cc12` [Compound 29, N-(3-(6-(4-(((2-(4-(4-(2,4-dioxotetrahydropyrimidin-1(2H)-yl)phenoxy)piperidin-1-yl)ethyl)amino)methyl)phenyl)-7H-pyrrolo[2,3-d]pyrimidin-4-yl)-5-fluoro-2-methylphenyl)-2-fluoro-4-(2-hydroxypropan-2-yl)benzamide], in experiment [1], the “BTK degradation Amax” value came to 40.5% and the half-maximal degradation concentration (DC50) is 40.2 nM. The same compound had an AC50 in experiment [2] of 2390 nM.
